Laboratory results as given in patent US7745493B2, “Methods of treating tardive dyskinesia and other movement disorders” (priority 1998, dated 2010).
Marks after values point to notes of the source that are not given here.

What was measured:
[1] = tested on: person two with long-standing TD; test: CPT with conditions (Vigilance) (Case 1); type: in vivo, human; conditions: ON drug
Description: (§1) The following tables report on the results of the neuropsychological tests (Drug I is memantine and Drug II is acamprosate): […]

[2] = tested on: person two with long-standing TD; test: Rey Auditory-Verbal Learning Test 15-items (Case 1); type: in vivo, human; conditions: ON drug
Description: On acamprosate, the patient was able to sustain concentration for prolonged periods. […] The patient's cognitive improvement was also assessed using formal neuropsychological measures. The patient was tested while on the drug, then taken off of the drug and tested two days later. On the drug, the patient was able to recall 13 of the 15 items after a short delay as well as 13 of the 15 items after a long delay, as measured by the Rey Auditory Verbal Learning Test. This was in comparison to the patient's ability while off the drug to recall only 7 of the 15 items after a short delay as well as 8 of the items after a long delay in tests performed. In addition, the patient was able to recognize all 15 of the items while on acamprosate but while off the drug (and while having been off of memantine for over 2 months) the patient could only recognize 10 of the items. The order of testing would give the advantage of familiarity to the off-drug condition. Nonetheless, the difference in favor of the on-drug condition was substantial.
as §1

[3] = tested on: person two with long-standing TD; test: Case Report 1: clinical observation of TD with blepharospasm; type: in vivo, human; conditions: Case 1; for effect on involuntary movements of TD: clinical observation, acamprosate 333 mg four times a day; for cognitive function (energy, attention, concentration): subjective and objective
Description: Palliative treatment with alprazolam (an anxiolytic and GABA agonist via modulation; dosage 0.25 mg four times a day) and trihexyphenidyl (an anticholinergic antiparkinson drug that inhibits dopamine re-uptake at synapses; dosage 2 mg twice a day) was prescribed by another physician.
Initially, their other medications were maintained unchanged.
Nimodipine was discontinued, and the patient was begun on memantine at a dosage of 10 mg twice a day.
For the following 10 days they added 250 mg three times a day of chelated magnesium.

[4] = tested on: person one with long-standing TD; test: Case Report 2: clinical observation of TD; type: in vivo, human; conditions: Case 2; for effect on involuntary movements of TD: acamprosate 666 mg three times daily added to memantine, magnesium oxide 250 mg three times a day added to acamprosate; for cognitive symptoms / memory: subjective
Description: person one had long-standing TD following decades of treatment with the neuroleptic drug perphenazine. Their involuntary movements comprised bilateral chorea of the upper extremities, plus writhing of the tongue and tongue-biting. Both of the latter movements led to a very sore tongue. In addition, the patient experienced impairment of their short-term memory, which was attributed primarily to cerebrovascular disease.
They also continued to have a sore tongue. […] In addition to memantine, the patient regularly took antiepileptic drugs (gabapentin and lamotrigine), antiplatelet agents (aspirin and ticlopidine), as well as medications for hypertension, glaucoma and gastrointestinal symptoms (isosorbide mononitrate, metoprolol, timolol eye drops and olsalazine).
(§2) The patient was placed on a treatment regime that included administration of 666 mg of acamprosate, three times daily. In this case, acamprosate was added to the patient's regimen, which continued to include memantine. […] Despite past evidence from formal testing that the patient had impaired short-term memory, they performed normally on a two-sentence memory task, which involved testing the patient's recall ability using two sentences containing 13 separate details. On the two-sentence memory task, within three attempts the patient was able to recall 9 details and, using a multiple choice format, was able to recall a total of 11 details. Recall of 9 details on the third attempt would be normal for a middle-aged adult, let alone one […].
After a full year on memantine and acamprosate, the memantine was discontinued, with little change in the patient's symptoms.
Magnesium oxide, 250 mg three times a day, was added, each dose being taken together with the acamprosate. […] The effect was definite: movements worsened when magnesium oxide was stopped and improved when it was restarted. After a month on magnesium, the dosage of acamprosate was increased to 666 mg four times a day, with 250 mg of magnesium oxide given together with each dose. […] The only residual sign of TD was a mild degree of involuntary movement of the hands.

[5] = tested on: person one with long-standing TD; test: Case Report 2: two-sentence memory task; type: in vivo, human; conditions: Case 2; on acamprosate 666 mg three times daily plus memantine
Description: as §2

[6] = tested on: person with extremely severe tardive dyskinesia and dystonia; test: Case Report 4: clinical course and physician examination; type: in vivo, human; conditions: Case 4
3,338 patients = conditions: alcoholism treatment; cited from earlier work
[7] = tested on: person two with long-standing TD; test: Verbal Fluency (Case 1); type: in vivo, human; conditions: ON drug
Description: as §1

[8] = tested on: person two with long-standing TD; test: Rey-Osterrieth Complex Figure (Case 1); type: in vivo, human; conditions: ON drug, higher score better
Description: as §1

[9] = tested on: person two with long-standing TD; test: California Verbal Learning Test 16-items (Case 1); type: in vivo, human; conditions: ON drug
Description: as §1

[10] = of 15 items, higher score better

## CC(=O)NCCCS(=O)(=O)O [acamprosate, calcium N-acetylhomotaurinate]
[1]; higher score better
  CPT Correct: 100/100
[1]; lower score better
  CPT Commission errors: 0
  CPT Omission errors: 0
  CPT Wrong: 3
[2]; higher score better
  RAVLT List A Trial 1: 10
  RAVLT List A Trial 5: 14
  RAVLT List B: 8
  Rey Auditory Verbal Learning Test List A 1-5 total (75 max): 63
[2]; lower score better
  RAVLT False Positive: 1
  RAVLT Intrusions: 0
  RAVLT Perseverations: 5
[2]; [10]
  RAVLT Long-Delay Free Recall: 13
  RAVLT Recognition Hits: 15
  RAVLT Short-Delay Free Recall: 13
[3]
  involuntary movements two months after reinstitution: absent except for very mild movements during times of stress
  time to recovery of energy, stamina, concentration and memory after re-instituting treatment: Within two days
  cognitive function (energy, attention, concentration): improved significantly
[3]; 333 mg four times a day
  time able to read a book: over an hour at a time
[3]; memantine 10 mg twice a day
  effect on involuntary movements of TD: became imperceptible
[3]; on the acamprosate regime
  fatigue: significantly decreased
[4]; 666 mg three times a day
  persistent symptoms on acamprosate after memantine discontinued: mild choreatic movements on the hands, mild involuntary movements of the tongue and jaw
[4]
  effect on involuntary movements of TD: chorea and tongue-biting stopped completely
  cognitive symptoms / memory: memory improved
[5]
  details recalled within three attempts (of 13 details): 9
  total details recalled using multiple choice format (of 13 details): 11
[6]
  time after resuming drug until previous level of benefit regained: 72 h
  time off drug until movement disorder returned to baseline: 24 h
3,338 patients
  side effects in controlled trials: no severe medical or neurological side effects

## CC12CC3CC(C)(C1)CC(N)(C3)C2 [memantine]
[7]
  Verbal Fluency Category (Animals) Per: Per = 0^b
  Verbal Fluency Letter (CFL) Per: Per = 2^b
[7]; higher score better
  Verbal Fluency Category (Animals) Total: Total = 25
  Verbal Fluency Letter (CFL) Total: Total = 70
[8]
  Rey-Osterrieth Complex Figure Copy Organization: 5
  Rey-Osterrieth Complex Figure Copy Presence & Accuracy: 20
  Rey-Osterrieth Complex Figure Delayed Retention: −11.1
  Rey-Osterrieth Complex Figure Immediate Retention: −55
[9]; higher score better
  CVLT List A 1-5 total (80 max): 53
  CVLT List A Trial 1: 7
  CVLT List A Trial 5: 13
  CVLT List B: 7
  CVLT Long-Delay Cued Recall: 15
  CVLT Long-Delay Free Recall: 12
  CVLT Recognition Hits: 16
  CVLT Short-Delay Cued Recall: 13
  CVLT Short-Delay Free Recall: 10
[9]; lower score better
  CVLT False Positives: 3
  CVLT Intrusions: 6
  CVLT Perseverations: 23
[3]; 5 mg three times a day
  side effects at reduced dose: without perceptible side effects
[3]; 10 mg twice a day
  time to reduction of involuntary movements: ≤ 24 h
[3]; memantine 10 mg twice a day
  effect on involuntary movements of TD: substantially greater degree than had been observed with nimodipine
[3]; nimodipine 30 mg four times a day, memantine 10 mg twice a day
  adverse effects: a sense of mild intoxication
[3]
  cognitive function (energy, attention, concentration): improved energy, attention, and concentration
[4]
  effect on involuntary movements of TD: improved, but continued at a mild-to-moderate level
  cognitive symptoms / memory: did not improve
[6]; memantine 10 mg three times a day added to acamprosate and magnesium sulfate
  effect on movement disorder: aggravated their movement disorder
